Among the data in ChEMBL document CHEMBL1128843, “Protein kinase C- inhibitors; structure-activity relationships in bis-indole series” (Bioorg Med Chem Lett, 1995) are IC50 values, retold here.

For the assay, the target named is Protein kinase C alpha type (Homo sapiens, UniProt P17252). In words: Inhibition of Protein kinase C alpha.

As usually defined, the IC50 is the concentration that gives 50% inhibition. Read a low IC50 as higher potency.

Consider `COC(=O)c1cc(NC(=O)c2cc(C(=O)c3cc(NC(=O)Cn4cc(C5=C(c6c[nH]c7ccccc67)C(=O)NC5=O)c5ccccc54)cn3C)cn2C)cn1C`, for which the IC50 turned out to be 170 nM. On to `CN(C)CCCNC(=O)c1cc(NC(=O)c2cc(NC(=O)c3cc(NC(=O)Cn4cc(C5=C(c6c[nH]c7ccccc67)C(=O)NC5=O)c5ccccc54)cn3C)cn2C)cn1C`, for which the IC50 was determined as 460 nM. The compound `COC(=O)c1cc(NC(=O)c2cc(NC(=O)Cn3cc(C4=C(c5c[nH]c6ccccc56)C(=O)NC4=O)c4ccccc43)cn2C)cn1C` had a 50% inhibitory concentration (IC50) of 280 nM. Turning to `CN(C)CCCNC(=O)c1cc(NC(=O)c2cc(NC(=O)Cn3cc(C4=C(c5c[nH]c6ccccc56)C(=O)NC4=O)c4ccccc43)cn2C)cn1C`, the IC50 was found to be 630 nM. As for `CN(C)CCCNC(=O)c1cc(NC(=O)Cn2cc(C3=C(c4c[nH]c5ccccc45)C(=O)NC3=O)c3ccccc32)cn1C`, half-maximal inhibition (IC50) was put at 1000 nM. In the case of `COC(=O)c1cc(NC(=O)Cn2cc(C3=C(c4c[nH]c5ccccc45)C(=O)NC3=O)c3ccccc32)cn1C`, the half-maximal inhibitory concentration (IC50) was determined as 500 nM. For the compound `CN(C)CCCn1cc(C2=C(c3c[nH]c4ccccc34)C(=O)NC2=O)c2ccccc21` [GF-109203], the IC50 stood at 10 nM.
